Reference: ChEMBL document CHEMBL1201862, “PubChem BioAssay data set” (2004)
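All cell lines were grown in 96-well plates and treated with compound for 48 hours. GI50 marks 50% less growth.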 Calls of active or inactive are those of the source. Cut-off read from the data, not from the text of the source: active = GI50 up to about 1.1 µM and inactive = higher.

Key:
Test in all cases: growth of human tumour cells (NCI), 48 h
SNB-75 = test system: SNB-75
TK-10 = test system: TK-10
MDA-N = test system: MDA-N
ACHN = test system: ACHN
MDA-MB-231 = test system: MDA-MB-231
Malme-3M = test system: Malme-3M
SK-MEL-5 = test system: SK-MEL-5
NCI/ADR-RES = test system: NCI/ADR-RES
CAKI-1 = test system: CAKI-1
SN12C = test system: SN12C
MDA-MB-435 = test system: MDA-MB-435
HCT-116 = test system: HCT-116
NCI-H23 = test system: NCI-H23
EKVX = test system: EKVX
SNB-19 = test system: SNB-19
IGROV-1 = test system: IGROV-1
T47D = test system: T47D
HCT-15 = test system: HCT-15
UACC-62 = test system: UACC-62
A498 = test system: A498

Structure (SMILES) | GI50 (SNB-75) | GI50 (TK-10) | GI50 (MDA-N) | GI50 (ACHN) | GI50 (MDA-MB-231) | GI50 (Malme-3M) | GI50 (SK-MEL-5) | GI50 (NCI/ADR-RES) | GI50 (CAKI-1) | GI50 (SN12C) | GI50 (MDA-MB-435) | GI50 (HCT-116) | GI50 (NCI-H23) | GI50 (EKVX) | GI50 (SNB-19) | GI50 (IGROV-1) | GI50 (T47D) | GI50 (HCT-15) [µM] | GI50 (UACC-62) | GI50 (A498)
CN1CCC(OC(=O)Oc2ccccc2)(c2ccccc2)CC1 | 24.4 µM (inactive) | 19.1 µM (inactive) | 17.6 µM (inactive) | 34.9 µM (inactive) | 12.9 µM (inactive) | 17.7 µM (inactive) | 20 µM (inactive) | 16.6 µM (inactive) | 77.3 µM (inactive) | 15.4 µM (inactive) | 17.3 µM (inactive) | 13 µM (inactive) | 14.4 µM (inactive) | 45.8 µM (inactive) | 25.4 µM (inactive) | 21.1 µM (inactive) | 26.6 µM (inactive) | 16.7 | 21.5 µM (inactive) | 23.8 µM (inactive)
COc1ccc(-n2cnc3c(NCC(=O)O)ncnc32)cc1 | > 100 µM (inactive) | > 100 µM (inactive) | > 100 µM (inactive) | > 100 µM (inactive) | > 100 µM (inactive) | 54.1 µM (inactive) | > 100 µM (inactive) | > 100 µM (inactive) | > 100 µM (inactive) | > 100 µM (inactive) | > 100 µM (inactive) | > 100 µM (inactive) | > 100 µM (inactive) | > 100 µM (inactive) | > 100 µM (inactive) | > 100 µM (inactive) | > 100 µM (inactive) | > 100 | > 100 µM (inactive) | > 100 µM (inactive)
O=C(Nc1c(C(F)(F)F)cc(-c2ccccc2)[nH]c1=O)N1CCOCC1 | > 100 µM (inactive) | > 100 µM (inactive) | 77.1 µM (inactive) | > 100 µM (inactive) | > 100 µM (inactive) | > 100 µM (inactive) | 38.1 µM (inactive) | > 100 µM (inactive) | > 100 µM (inactive) | > 100 µM (inactive) | > 100 µM (inactive) | > 100 µM (inactive) | > 100 µM (inactive) | 40.2 µM (inactive) | > 100 µM (inactive) | > 100 µM (inactive) | > 100 µM (inactive) | > 100 | > 100 µM (inactive) | > 100 µM (inactive)
CO[C@H]1C[C@H](O[C@H]2CC[C@]3(C=O)[C@H]4CC[C@]5(C)[C@@H](C6=CC(=O)OC6)CC[C@]5(O)[C@@H]4CC[C@]3(O)C2)O[C@H](C)[C@H]1O[C@@H]1O[C@H](CO)[C@@H](O)[C@H](O)[C@H]1O | 5.1e-05 µM (active) | 2.48e-05 µM (active) | 3.94e-05 µM (active) | 9.16e-06 µM (active) | 0.000173 µM (active) | 2.7e-05 µM (active) | 2.62e-05 µM (active) | 1.15e-05 µM (active) | 1.34e-05 µM (active) | 1.05e-05 µM (active) | 4.61e-05 µM (active) | 9.73e-06 µM (active) | 7.87e-06 µM (active) | 7e-06 µM (active) | 8.93e-05 µM (active) | > 0.01 µM (active) | 5.53e-05 µM (active) | 3.94e-05 | 6.17e-05 µM (active) | 5.81e-05 µM (active)
